Legend:
PBMCs = test: Uptake of dye 2-labelled MSC-EVs by immune cells of the mdMLR assay; format: cell-based, human; conditions: 5 days with dye 2-labelled MSC-EVs
Protocol: The MSC-EV preparations were stained with dye 2 of the invention according to the following protocol. Dye 2 was provided as a lyophilised powder. 1 mg of dye 2 was resuspended with 1 mL buffer to a final concentration of […]. Like CFDA-SE, the dye 2 solution was centrifuged for 10 min at 17,000 x g to reduce background noise to a minimum. Briefly, for the EV-labelling 25 μL of the MSC-EV preparations were incubated with 25 μL of a prepared, centrifuged dye 2 solution (0.2 μM) for 1 hour at 37° C. The sample was diluted 1:20 to a final volume of 1 mL prior to analysis. For EV uptake experiments dye 2-labelled MSC-EV preparations were cleared from EV unbound dye 2 by ultrafiltration. Briefly, after labelling with dye 2, the MSC-EVs were washed by via centrifugation at 12,000xg through Vivaspin 500 filters (Sartorius) for 10 min. The retentate was collected as labelled EV sample.
(§1) The immunomodulatory potential of dye 2-labelled and non-labelled MSC-EV preparations were compared in a multi-donor mixed lymphocyte reaction assay (MLR) as described previously (Madel et al., 2020, Independent human mesenchymal stromal cell-derived extracellular vesicle preparations differentially affect symptoms in an advanced murine Graft-versus-Host-Disease model. bioRxiv, 2020.2012.2021.423658). Briefly, Ficoll prepared peripheral blood mononuclear cells (PBMC) of 12 healthy donors were mixed in equal proportions, aliquoted and stored in the vapour phase of liquid nitrogen until usage. After thawing 600,000 cells were seeded per well of a 96-well U-bottom shape plates (Corning, Kaiserslautern, Germany) and cultured in 10% human AB serum (produced in house) and 100 U/mL penicillin and 100 µg/mL streptomycin (Thermo Fisher Scientific) supplemented RPMI 1640 medium (Thermo Fisher Scientific) in a final volume of 200 μL per well, either in the presence or absence of MSC-EV preparations to be tested. After 5 days, cells were harvested, stained with a collection of different fluorescent labelled antibodies (CD4-BV785; BioLegend, San Diego, CA, USA; CD25-PE-Cy5.5; BD Bioscience; and CD54-AF700; EXBIO) and analysed on a Cytoflex flow cytometer (Software CytExpert 2.3, Beckman-Coulter). Activated and non-activated CD4^+ T cells were discriminated by means of their CD25 and CD54 expression, respectively. Typically, 5 μL of MSC-EV preparations to be tested were applied into respective wells. The following antibodies were used to further discriminate subpopulations: CD8-BV650 (BioLegend), CD14-PO (EXBIO), CD19-ECD (Beckman Coulter) and CD56-APC (BioLegend). The evaluation of the data was carried out with the Kaluza software (Version 2.1, Beckman Coulter).
To investigate whether EV labelling with dye 2 of the invention allows the identification of EV-uptaking cells, the labelled EV uptake of the different immune cells within the mdMLR assay was examined. To this end, a pool of PBMCs derived from 12 healthy donors were cultured for 5 days in the presence of dye 2-labelled MSC-EVs (n=3) that had been cleared from excess dye 2 by ultrafiltration. Thereafter, cells were harvested, antibody labelled and analysed by flow cytometry. The content of dye 2-labelled cells within different PBMC subtypes was determined. […] In contrast, only proportions of the different lymphocytes appeared as dye 2 positive cells, i.e. 71% of all CD4^+ T cells (CD4^+ cells), 34% of all CD8^+ T cells (CD8^+ cells), 72% of all B cells (CD19^+ cells) and 15% of all NK cells (CD56^+ cells). […]

CD4+ T cells = test: Multi-donor mixed lymphocyte reaction (mdMLR) assay; format: cell-based, human
Source text: as §1, with “Activated and non-activated CD4^+ T cells were discriminated by means of their CD25 and CD54 expression, respectively. Typically, 5 μL of MSC-EV preparations to be tested were applied into respective wells. The following antibodies were used to further discriminate subpopulations: CD8-BV650 (BioLegend), CD14-PO (EXBIO), CD19-ECD (Beckman Coulter) and CD56-APC (BioLegend). The evaluation of the data was carried out with the Kaluza software (Version 2.1, Beckman Coulter).” left out

[1] = tested on: human umbilical cord-derived mesenchymal stem cells (UC-MSCs); test: Imaging human cells labelled with dye (microscopy); format: cell-based; conditions: 0.2 μM dye
Protocol: (§2) The cells were imaged to assess incorporation of the dyes according to the following procedure. Cell+dye 2 samples were prepared following the procedure in Example 4 with the following modifications: the cells were seeded with NHDF (not older than P9), human umbilical cord-derived mesenchymal stem cells (UC-MSCs) or bone marrow-derived MSCs (BM-MSCs); and the dye 2 was used in a final concentration of 0.2 μM. Before imaging, each well was washed with 1× HBSS (−) once. 100-200 μL of 1× HBSS (−) was added to each well prior to imaging to make sure the cells are not dried out. The cells were imaged on a Thermo Fisher Evos M5000 microscope equipped with the Texas Red filter. Routinely utilized conditions are (magnification, light, exposure, gain): 10× Texas Red, 22, 146, 105; 20× Texas Red, 12, 133, 64; 40× Texas Red, 36, 79, 40. Settings were held constant for all images taken on the same plate.

NHDF = test: Imaging human cells labelled with dye (microscopy); format: cell-based; conditions: 0.2 μM dye
Protocol: as §2

[2] = tested on: bone marrow-derived MSCs (BM-MSCs); test: Imaging human cells labelled with dye (microscopy); format: cell-based; conditions: 0.2 μM dye
Protocol: as §2

[3] = tested on: normal human dermal fibroblasts (NHDF); test: Labelling of human cells with dyes (plate fluorescence); format: cell-based; conditions: 2 μM dye, 1 hr 37° C., washed with HBSS; higher = more incorporation
Protocol: Labelling of human cells with dyes 1-10 was performed according to the following procedure. Each well of a Costar 96 well flat bottom plate was seeded with 5,000 normal human dermal fibroblasts (NHDF; not older than P9) and allowed to attach overnight in full media: fibroblast growth media (Lonza)+2% v/v fetal calf serum. Each dye was diluted 1:50 from a stock of 1 mM with 10 mM L-histidine, 150 mM NaCl, pH 6.0, to a final concentration of 20 μM. The dye was subsequently added to full media at a further 1:10 dilution to a final concentration of 2 μM. The media on the cells was subsequently replaced with the freshly prepared full media containing the dye. For negative controls, an equivalent volume of the diluent solution was added to the cell solution. Cells were incubated for 1 hr at 37° C. and then washed with 1 xHBSS (Hank's balanced salt solution) to remove free dye. Plate was imaged using the CLARIOStar spectrophotometer (5x5 matrix mode, average of 25 data points, 3 wells for each dye). A higher fluorescence indicates a higher amount of incorporation into the cells.

- influence on activation status of CD4+ T cells (CD4+ T cells; buffer solved dye alone): did not influence the activation status
Compound: CCCCCCCCCCCCCCCCCCN(C)C(=O)c1ccccc1-c1c2ccc(=[N+](CC)CC)cc-2oc2cc(N(CC)CC)ccc12.[Cl-] [Dye 2, Rhodamine B N-methyloctadecylamide]
- dye 2 positive B cells (CD19+ cells) (PBMCs): 72%
- dye 2 positive CD4+ T cells (PBMCs): 71%
- dye 2 positive CD8+ T cells (PBMCs): 34%
- dye 2 positive NK cells (CD56+ cells) (PBMCs): 15%
- dye 2 positive monocytes (CD14+ cells) (PBMCs): 99%
- reduction in CD4+ T cell activation (CD4+ T cells; dye 2-labelled MSC-EV preparations (n=3), versus non-labelled): comparable reduction
- labelling of cells (microscopy, FIG. 3(b)) [1]: capable of labelling
- labelling of cells (microscopy, FIG. 3(a)) (NHDF): capable of labelling
- labelling of cells (microscopy, FIG. 3(c)) [2]: capable of labelling
- FLD [3]: 123449
